Laboratory results as given in US20240140986A1, “SYNTHETIC URSOLIC ACID DERIVATIVES AND METHODS OF USE THEREOF” (REATA PHARMACEUTICALS, INC., priority 2021, published 2024).
Read-outs that look alike come from different tables or passages of the source.

Columns and labels:
[1] = test system: Nrf2 / ARE-dependent luciferase in AREc32 reporter cell line; assay: AREc32 luciferase reporter activation (Nrf2 induction); format: cell-based, human; details: for EC (2-fold): Homo sapiens, Arec32; for Relative Avg AREc32 EC2X Relative to RTA402 (fold): ratio to RTA402
Procedure: Effect on Ludferase Reporter Activation. Nrf2 is a transcription factor that binds to the antioxidant response element (ARE) sequence in the promoter regions of its target genes. AREc32 reporter cell line (derived from human breast carcinoma MCF7 cells) was obtained was from CXR Bioscience Limited (Dundee, UK) and cultured in DMEM (low glucose) supplemented with 10% FBS, 1% penicillin/streptomycin, and 0.8 mg/ml Geneticin (G418). This cell line is stably transfected with a luciferase reporter gene under the transcriptional control of eight copies of the rat GSTA2 ARE sequence (5′-GTGACAAAGCA-3′) (Wang et al., 2006). Expression of Firefly luciferase from this reporter plasmid is controlled by binding of Nrf2 to these ARE sequences. Measurement of ARE-dependent luciferase activity allows quantitative assessment of Nrf2 induction. AREc32 cell line has previously been used in studies characterizing different Nrf2 activators (Dinkova-Kostova & Wang, 2011; Roubalová et al., 2016; Roubalová et al, 2017; Wu et al, 2012).
The effect of several compounds disclosed herein on luciferase reporter activation was assessed in the AREc32 reporter cell line (see Table 10 and Table 11). This cell line is derived from human breast carcinoma MCF-7 cells and is stably transfected with a luciferase reporter gene under the transcriptional control of eight copies of the antioxidant response element from the rat Gsta2 gene, an Nrf2 target gene (Frilling et al., 1990). AREc32 cells were plated in black 96-well plates in 200 μL media at 20,000 cells per well. Twenty-four hours after plating, cells were treated with vehicle (DMSO) or test compounds at concentrations ranging from 0.03 to 1000 nM for nineteen hours. Media was removed and 100 μL of 1:1 mixture of the One-Glo Luciferase assay reagent and culture medium was added to each well. After incubation for 5 min at room temperature, the luminescence signal was measured on a PHERAstar plate reader. The EC2X value was determined using Excel and GraphPad Prism software. The fold increase in luminescence signal for cells treated with each concentration of compound relative to cells treated with vehicle was determined and a dose-response curve was generated. The dose-response curve was fit using nonlinear regression analysis and used to extrapolate the EC2X value. The EC2X value is defined as the concentration of test compound required to increase the luminescence signal 2-fold above levels in vehicle-treated samples.

[2] = test system: IFNγ-induced NO production in RAW 264.7 cells; assay: Nitric Oxide Suppression Assay (IFNγ-induced NO, Griess nitrite readout); format: cell-based, mouse; details: for IC50: Mus musculus; for Avg NO IC50 Relative to RTA402 (fold): Table 2, ratio to RTA402
Procedure: Tissue Culture: RAW 264.7, a mouse macrophage cell line, was obtained from American Type Culture Collection (Manassas VA) and maintained in the log phase of growth in Roswell Park Memorial Institute Medium 1640 (RPMI 1640) supplemented with 10% heat inactivated fetal bovine serum and 1% penicillin-streptomycin. Cells were cultured and maintained in a humidified incubator at 37° C. under 5% C02. Cells were sub-cultured every 2-4 days. All cell culture supplies were obtained from Life Technologies (Grand Island, NY) and VWR (Radnor, PA).
Nitric Oxide Suppression Assay. RAW 264.7 cells were plated 1 day in advance of experimental treatments at a concentration of 30,000 cells per well onto Falcon-96 well clear bottom plates (Corning, NY) in a total volume of 200 μL per well using RPMI 1640 supplemented with 0.5% fetal bovine serum and 1% penicillin-streptomycin. The next day, cells were pretreated with compounds serially diluted from 1000×stocks. All compounds were dissolved in dimethyl sulfoxide (DMSO) usually at 10 mM stock solutions. Compounds were subsequently diluted in DMSO and RPMI 1640. Each well received a final concentration of 0.1% DMSO. Cells were pretreated for 2 hours and incubation at 37° C., followed by treatment with 20 ng/mL of interferon gamma (R&D Systems, Minneapolis, MN) per well for 24 hours. The next day, a nitrite standard was serially diluted from 100 μM to 1.6 μM in RPMI 1640. Afterwards, 50 μL of cell culture supernatant was transferred from each well into a new Falcon-96 well clear bottom plate. Nitrite was measured as surrogate for nitric oxide using Promega's Griess Detection Kit #G2930 (Madison, WI) which involves the addition of 50 μL of the provided sulfanilamide solution to each well of the transferred cell culture supernatant and standards, followed by a 10-minute incubation at room temperature. Next, 50 μL of the provided N-1-napthylethylenediamine dihydrochloride (NED) solution was added to the sulfanilamide reaction and incubated for 10 minutes at room temperature in the dark. Afterwards, air bubbles were removed using ethanol vapor and absorbance was measured using a Spectramax M2e plate reader with a wavelength set to 525 nm. Viability was assessed using WST-1 cell proliferation reagent from Roche (Basel, Switzerland). After media was removed for the Nitric Oxide suppression assay, 15 μL of WST-1 reagent was added to each well of cells. Plates were briefly mixed on an orbital shaker and the cells were incubated at 37° C. for 30-90 minutes. Absorbance was measured using a Spectramax M2e plate reader with wavelengths set to 440 nm and 700 nm.
For the ability of compounds to suppress the increase in nitric oxide release caused by interferon gamma, the absolute amount of nitrite that was produced in each well was extrapolated from the nitrite standards using a linear regression fit. All values were then normalized to the DMSO-interferon gamma treated wells and plotted as percent nitric oxide. IC50 values were calculated using Excel and/or GraphPad Prism (San Diego, CA).

[3] = Table 3, oleanolic acid derivative analogs, read-out: Avg ARE EC-2X
[4] = RAW264.7, Table 3, oleanolic acid derivative analogs, read-out: Avg NO IC50
[5] = Table 2, concentration increasing luminescence 2-fold above vehicle, 19 h treatment, read-out: Avg AREc32 EC2X (nM) (Mean ± SD)
[6] = RAW264.7, Table 2, RAW 264.7 cells, 2 h pretreatment, 20 ng/mL interferon gamma 24 h, read-out: Avg NO IC50 (nM) (Mean ± SD)
[7] = Table 3, ursolic acid derivatives, read-out: Avg ARE EC-2X (nM) (Mean ± SD)
[8] = RAW264.7, Table 3, ursolic acid derivatives, read-out: Avg NO IC50 (nM) (Mean ± SD)

CC1(C)CC[C@]2(Cn3ccnc3)CC[C@]3(C)[C@H](C(=O)C=C4[C@@]5(C)C=C(C#N)C(=O)C(C)(C)[C@@H]5CC[C@]43C)[C@@H]2C1 [CC51, reference compound]
EC (2-fold) [1, 3]: 18 nM
IC50 [2, 4]: 3.9 nM

CC1(C)CC[C@]2(CN3NCCC3=O)CC[C@]3(C)[C@H](C(=O)C=C4[C@@]5(C)C=C(C#N)C(=O)C(C)(C)[C@@H]5CC[C@]43C)[C@@H]2C1 [CC54, reference compound]
EC (2-fold) [1, 3]: 11.7 nM
IC50 [2, 4]: 8.6 nM

C[C@@H]1[C@H]2[C@H]3C(=O)C=C4[C@@]5(C)C=C(C#N)C(=O)C(C)(C)[C@@H]5CC[C@@]4(C)[C@]3(C)CC[C@@]2(N2CCOC2=O)CC[C@H]1C [CC59, reference compound]
EC (2-fold) [1, 3]: 23.6 nM
IC50 [2, 4]: 2.2 nM

CC1(C)CC[C@]2(n3ccnc3)CC[C@]3(C)[C@H](C(=O)C=C4[C@@]5(C)C=C(C#N)C(=O)C(C)(C)[C@@H]5CC[C@]43C)[C@@H]2C1 [CC62, reference compound]
EC (2-fold) [1, 3]: 26.8 nM
IC50 [2, 4]: 3.2 nM

Cc1nnc([C@]23CCC(C)(C)C[C@H]2[C@H]2C(=O)C=C4[C@@]5(C)C=C(C#N)C(=O)C(C)(C)[C@@H]5CC[C@@]4(C)[C@]2(C)CC3)o1 [CC69, reference compound]
EC (2-fold) [1, 3]: 9.81 nM
IC50 [2, 4]: 2.2 nM

CC1(C)CC[C@]2(N3CCC3=O)CC[C@]3(C)[C@H](C(=O)C=C4[C@@]5(C)C=C(C#N)C(=O)C(C)(C)[C@@H]5CC[C@]43C)[C@@H]2C1 [CC74, reference compound]
EC (2-fold) [1, 3]: 36.1 nM
IC50 [2, 4]: 4.3 nM

Cc1nc([C@]23CCC(C)(C)C[C@H]2[C@H]2C(=O)C=C4[C@@]5(C)C=C(C#N)C(=O)C(C)(C)[C@@H]5CC[C@@]4(C)[C@]2(C)CC3)no1 [CC82, reference compound]
EC (2-fold) [1, 3]: 22.1 nM
IC50 [2, 4]: 3.8 nM

Cc1noc([C@]23CC[C@@H](C)[C@H](C)[C@H]2[C@H]2C(=O)C=C4[C@@]5(C)C=C(C#N)C(=O)C(C)(C)[C@@H]5CC[C@@]4(C)[C@]2(C)CC3)n1 [Compound T1]
EC (2-fold) [1, 5]: 8.44 ± 1.56 nM
Relative Avg AREc32 EC2X Relative to RTA402 (fold) ([1]; Table 2): 0.744 ± 0.121 fold
IC50 [2, 6]: 3.76 ± 1.35 nM
Avg NO IC50 Relative to RTA402 (fold) [2]: 2.53 ± 0.74 fold

C[C@@H]1[C@H]2[C@H]3C(=O)C=C4[C@@]5(C)C=C(C#N)C(=O)C(C)(C)[C@@H]5CC[C@@]4(C)[C@]3(C)CC[C@@]2(c2nc(C3CC3)no2)CC[C@H]1C [Compound T2]
EC (2-fold) [1, 5]: 35 ± 2 nM
EC (2-fold) [1, 7]: 35 ± 2 nM
Relative Avg AREc32 EC2X Relative to RTA402 (fold) ([1]; Table 2): 3.41 ± 0.20 fold
IC50 [2, 6]: 21.3 ± 7.4 nM
IC50 [2, 8]: 21.3 ± 7.4 nM
Avg NO IC50 Relative to RTA402 (fold) [2]: 9.86 ± 0.83 fold

COCc1noc([C@]23CC[C@@H](C)[C@H](C)[C@H]2[C@H]2C(=O)C=C4[C@@]5(C)C=C(C#N)C(=O)C(C)(C)[C@@H]5CC[C@@]4(C)[C@]2(C)CC3)n1 [Compound T3]
EC (2-fold) [1, 5]: 6.16 ± 1.02 nM
Relative Avg AREc32 EC2X Relative to RTA402 (fold) ([1]; Table 2): 0.598 ± 0.137 fold
IC50 [2, 6]: 5.1 ± 1.02 nM
Avg NO IC50 Relative to RTA402 (fold) [2]: 2.51 ± 0.94 fold

CCc1noc([C@]23CC[C@@H](C)[C@H](C)[C@H]2[C@H]2C(=O)C=C4[C@@]5(C)C=C(C#N)C(=O)C(C)(C)[C@@H]5CC[C@@]4(C)[C@]2(C)CC3)n1 [Compound T4]
EC (2-fold) [1, 5]: 19.9 ± 0.2 nM
EC (2-fold) [1, 7]: 19.9 ± 0.2 nM
Relative Avg AREc32 EC2X Relative to RTA402 (fold) ([1]; Table 2): 1.93 ± 0.23 fold
IC50 [2, 6]: 14.8 ± 2.9 nM
IC50 [2, 8]: 14.8 ± 2.9 nM
Avg NO IC50 Relative to RTA402 (fold) [2]: 7.06 ± 0.83 fold

C[C@@H]1[C@H]2[C@H]3C(=O)C=C4[C@@]5(C)C=C(C#N)C(=O)C(C)(C)[C@@H]5CC[C@@]4(C)[C@]3(C)CC[C@@]2(c2nc(CCO)no2)CC[C@H]1C [Compound T5]
EC (2-fold) [1, 5]: 2.4 ± 0.75 nM
Relative Avg AREc32 EC2X Relative to RTA402 (fold) ([1]; Table 2): 0.224 ± 0.196 fold
IC50 [2, 6]: 1.81 ± 0.331 nM
Avg NO IC50 Relative to RTA402 (fold) [2]: 1.24 ± 0.13 fold

COC(C)c1noc([C@]23CC[C@@H](C)[C@H](C)[C@H]2[C@H]2C(=O)C=C4[C@@]5(C)C=C(C#N)C(=O)C(C)(C)[C@@H]5CC[C@@]4(C)[C@]2(C)CC3)n1 (some centres unmarked) [Compound T6]
EC (2-fold) [1, 5]: 11.8 ± 1.9 nM
Relative Avg AREc32 EC2X Relative to RTA402 (fold) ([1]; Table 2): 1.03 ± 0.01 fold
IC50 [2, 6]: 7.66 ± 1.52 nM
Avg NO IC50 Relative to RTA402 (fold) [2]: 3.67 ± 1.40 fold

COCCc1noc([C@]23CC[C@@H](C)[C@H](C)[C@H]2[C@H]2C(=O)C=C4[C@@]5(C)C=C(C#N)C(=O)C(C)(C)[C@@H]5CC[C@@]4(C)[C@]2(C)CC3)n1 [Compound T7]
EC (2-fold) [1, 5]: 6.16 ± 0.7 nM
Relative Avg AREc32 EC2X Relative to RTA402 (fold) ([1]; Table 2): 0.595 ± 0.079 fold
IC50 [2, 6]: 3.65 ± 1.87 nM
Avg NO IC50 Relative to RTA402 (fold) [2]: 1.62 ± 0.54 fold

C[C@@H]1[C@H]2[C@H]3C(=O)C=C4[C@@]5(C)C=C(C#N)C(=O)C(C)(C)[C@@H]5CC[C@@]4(C)[C@]3(C)CC[C@@]2(c2nc(CN(C)C)no2)CC[C@H]1C [Compound T8]
EC (2-fold) [1, 5]: 3.72 ± 0.97 nM
EC (2-fold) [1, 7]: 3.72 ± 0.97 nM
Relative Avg AREc32 EC2X Relative to RTA402 (fold) ([1]; Table 2): 0.321 ± 0.059 fold
IC50 [2, 6]: 3.33 ± 0.68 nM
IC50 [2, 8]: 3.33 ± 0.68 nM
Avg NO IC50 Relative to RTA402 (fold) [2]: 1.59 ± 0.20 fold

C[C@@H]1[C@H]2[C@H]3C(=O)C=C4[C@@]5(C)C=C(C#N)C(=O)C(C)(C)[C@@H]5CC[C@@]4(C)[C@]3(C)CC[C@@]2(c2nc(COC(C)(C)C)no2)CC[C@H]1C [Compound T9]
EC (2-fold) [1, 5]: 19.3 ± 4.5 nM
Relative Avg AREc32 EC2X Relative to RTA402 (fold) ([1]; Table 2): 1.84 ± 0.20 fold
IC50 [2, 6]: 11.3 ± 2.4 nM
Avg NO IC50 Relative to RTA402 (fold) [2]: 5.37 ± 0.71 fold

C[C@@H]1[C@H]2[C@H]3C(=O)C=C4[C@@]5(C)C=C(C#N)C(=O)C(C)(C)[C@@H]5CC[C@@]4(C)[C@]3(C)CC[C@@]2(c2nc(CO)no2)CC[C@H]1C [Compound T10]
EC (2-fold) [1, 5]: 2.4 ± 0.3 nM
EC (2-fold) [1, 7]: 2.4 ± 0.3 nM
Relative Avg AREc32 EC2X Relative to RTA402 (fold) ([1]; Table 2): 0.193 ± 0.024 fold
IC50 [2, 6]: 2.08 ± 0.14 nM
IC50 [2, 8]: 2.08 ± 0.14 nM
Avg NO IC50 Relative to RTA402 (fold) [2]: 1.45 ± 0.28 fold
